Legend:
Test in all cases: Bliss excess, mean over the matrix (fraction); higher = more synergy
AM-38 (Glioblastoma) = test system: AM-38 (Glioblastoma)
Procedure, shortened: (§1)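 After 24 hours at 37°C and 5% CO2 in 1536-well plates, cells in DMEM/F12 or RPMI plus 10% FBS received two-drug dose matrices for 72 hours. Viability came from CellTiter-Glo 2.0 luminescence and was scaled as inhibition, anchored at 0 by vehicle wells and at 1 by blank wells. Combination Emax is taken as the second-highest inhibition in the matrix, and Bliss excess as the observed combination effect less EA + EB − EA·EB, with EA and EB the single-agent effects.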

[1] = test system: CL-11 (Colorectal Carcinoma)
Procedure, shortened: as §1

[2] = test system: CPC-N (Small Cell Lung Carcinoma)
Procedure, shortened: as §1

ES6 (Ewing's Sarcoma) = test system: ES6 (Ewing's Sarcoma)
Procedure, shortened: as §1

IST-MEL1 (Melanoma) = test system: IST-MEL1 (Melanoma)
Procedure, shortened: as §1

[3] = test system: LCLC-103H (Non-Small Cell Lung Carcinoma)
Procedure, shortened: as §1

[4] = test system: MOLT-13 (T-Lymphoblastic Leukemia)
Procedure, shortened: as §1

[5] = test system: MS-1 (Small Cell Lung Carcinoma)
Procedure, shortened: as §1

NB1 (Neuroblastoma) = test system: NB1 (Neuroblastoma)
Procedure, shortened: as §1

NCI-H226 (Mesothelioma) = test system: NCI-H226 (Mesothelioma)
Procedure, shortened: as §1

NCI-H2373 (Mesothelioma) = test system: NCI-H2373 (Mesothelioma)
Procedure, shortened: as §1

[6] = test system: NCI-H596 (Other Solid Carcinomas)
Procedure, shortened: as §1

[7] = test system: Raji (Burkitt's Lymphoma)
Procedure, shortened: as §1

SK-N-SH (Neuroblastoma) = test system: SK-N-SH (Neuroblastoma)
Procedure, shortened: as §1

[8] = test system: SKG-IIIa (Cervical Carcinoma)
Procedure, shortened: as §1

[9] = test system: SNU-C2B (Colorectal Carcinoma)
Procedure, shortened: as §1

[10] = test system: SUP-M2 (T-Cell Non-Hodgkin's Lymphoma)
Procedure, shortened: as §1

T47D (Breast Carcinoma) = test system: T47D (Breast Carcinoma)
Procedure, shortened: as §1

[11] = test system: TUR (Acute Myeloid Leukemia)
Procedure, shortened: as §1

UACC-257 (Melanoma) = test system: UACC-257 (Melanoma)
Procedure, shortened: as §1

Structure (SMILES) | Bliss excess (AM-38 (Glioblastoma)) | Bliss excess [1] | Bliss excess [2] | Bliss excess (ES6 (Ewing's Sarcoma)) | Bliss excess (IST-MEL1 (Melanoma)) | Bliss excess [3] | Bliss excess [4] | Bliss excess [5] | Bliss excess (NB1 (Neuroblastoma)) | Bliss excess (NCI-H226 (Mesothelioma)) | Bliss excess (NCI-H2373 (Mesothelioma)) | Bliss excess [6] | Bliss excess [7] | Bliss excess (SK-N-SH (Neuroblastoma)) | Bliss excess [8] | Bliss excess [9] | Bliss excess [10] | Bliss excess (T47D (Breast Carcinoma)) | Bliss excess [11] | Bliss excess (UACC-257 (Melanoma))
CC(=O)c1c(C)c2cnc(Nc3ccc(N4CCNCC4)cn3)nc2n(C2CCCC2)c1=O [Palbociclib] + Cn1cnc2c(F)c(Nc3ccc(Br)cc3Cl)c(C(=O)NOCCO)cc21 [Selumetinib] (first compound max 10 µM, 7x7, partner max 10 µM) | 0.0242 | 0.0303 | -0.0271 | 0.0235 | 0.052 | 0.0012 | 0.193 | -0.0601 | -0.0669 | -0.0052 | -0.0239 | -0.0393 | -0.0103 | -0.0238 | -0.0394 | 0.0282 | 0.0342 | -0.0328 | -0.0069 | -0.0087
COc1cccc(OCCCN)c1-c1cc(Nc2cnc(C#N)cn2)n[nH]1 [Prexasertib] + C=CCn1c(=O)c2cnc(Nc3ccc(N4CCN(C)CC4)cc3)nc2n1-c1cccc(C(C)(C)O)n1 [AZD1775] (first compound max 1 µM, partner max 1 µM) | 0.0907 | -0.0496 | 0.0431 | 0.0362 | 0.0406 | 0.0284 | 0.0981 | 0.0972 | 0.0693 | 0.0023 | 0.0601 | 0.0087 | 0.0907 | 0.0025 | -0.006 | -0.0336 | 0.102 | 0.085 | 0.105 | 0.0714
COc1cccc(OCCCN)c1-c1cc(Nc2cnc(C#N)cn2)n[nH]1 [Prexasertib] + CCc1c2c(nc3ccc(O)cc13)-c1cc3c(c(=O)n1C2)COC(=O)[C@]3(O)CC [SN-38] (first compound max 1 µM, 7x7, partner max 0.3 µM) | -0.0317 | 0.0172 | 0.0633 | 0.0156 | -0.0552 | 0.081 | -0.0112 | -0.0051 | -0.0529 | -0.058 | 0.0224 | 0.0625 | -0.0279 | -0.0778 | 0.0683 | -0.0388 | -0.0099 | -0.0399 | 0.0107 | -0.0664
COc1cccc(OCCCN)c1-c1cc(Nc2cnc(C#N)cn2)n[nH]1 [Prexasertib] + CN(C)CCCOc1ccc(-c2ccc3ncc4c(c3c2)n(C2CCOCC2)c(=O)n4C)cn1 [AZD0156] (first compound max 1 µM, 7x7, partner max 1 µM) | 0.0112 | -0.0548 | 0.0081 | 0.0091 | -0.05 | -0.0391 | 0.0118 | 0.0205 | 0.142 | -0.0611 | 0.0329 | -0.0909 | -0.0105 | -0.0496 | 0.0159 | -0.0133 | 0.0163 | -0.0302 | 0.013 | 0.0044
COc1cccc(OCCCN)c1-c1cc(Nc2cnc(C#N)cn2)n[nH]1 [Prexasertib] + C[C@@H]1COCCN1C2=NC(=NC(=C2)C3(CC3)[S@](=N)(=O)C)C4=C5C=CNC5=NC=C4 [AZD6738] (first compound max 1 µM, 7x7, partner max 10 µM) | -0.0074 | -0.058 | -0.013 | 0.0366 | -0.0131 | 0.0242 | 0.002 | -0.0136 | 0.0001 | 0.01 | -0.0628 | 0.0159 | -0.0472 | -0.0425 | 0.0363 | -0.0274 | -0.0061 | 0.0003 | 0.0298 | 0.0005
COc1cccc(OCCCN)c1-c1cc(Nc2cnc(C#N)cn2)n[nH]1 [Prexasertib] + Cc1cc2ncnn2cc1Nc1ncc2c(n1)n(C1CCOCC1)c(=O)n2C [AZD7648] (first compound max 1 µM, 7x7, partner max 10 µM) | 0.0296 | -0.0065 | -0.0459 | 0.0027 | -0.0046 | -0.0791 | 0.004 | -0.0228 | 0.0251 | -0.0568 | -0.0099 | -0.026 | -0.0135 | -0.0138 | 0.0223 | -0.0356 | 0.0696 | -0.0055 | -0.0005 | -0.0111
COc1cccc(OCCCN)c1-c1cc(Nc2cnc(C#N)cn2)n[nH]1 [Prexasertib] + O=C(c1cc(Cc2n[nH]c(=O)c3ccccc23)ccc1F)N1CCN(C(=O)C2CC2)CC1 [Olaparib] (first compound max 1 µM, 7x7, partner max 10 µM) | 0.0359 | -0.0583 | -0.0458 | 0.0253 | -0.124 | -0.0572 | 0.0013 | -0.0481 | -0.0411 | -0.0802 | 0.001 | 0.0098 | 0.0082 | -0.0217 | -0.0274 | -0.0414 | 0.0298 | -0.0093 | -0.0181 | -0.0242
COc1cc2c(cc1OCCCCCOc1cc3c(cc1OC)C(=O)N1C=C(C)C[C@H]1C=N3)N=C[C@@H]1CC(C)=CN1C2=O [SG3199] + O=C(c1cc(Cc2n[nH]c(=O)c3ccccc23)ccc1F)N1CCN(C(=O)C2CC2)CC1 [Olaparib] (first compound max 0.001 µM, 7x7, partner max 10 µM) | -0.0032 | -0.016 | -0.0062 | -0.0231 | -0.0196 | -0.0506 | 0.018 | 0.0418 | -0.0418 | -0.0581 | 0.0054 | -0.0681 | 0.0002 | -0.0454 | -0.0391 | -0.0374 | 0.0274 | -0.0449 | 0.0081 | -0.0419
CCc1c2c(nc3ccc(O)cc13)-c1cc3c(c(=O)n1C2)COC(=O)[C@]3(O)CC [SN-38] + CN(C)CCCOc1ccc(-c2ccc3ncc4c(c3c2)n(C2CCOCC2)c(=O)n4C)cn1 [AZD0156] (first compound max 0.3 µM, 7x7, partner max 1 µM) | 0.149 | 0.117 | 0.199 | 0.0441 | -0.0785 | 0.0263 | 0.085 | -0.0384 | -0.0476 | -0.0287 | -0.0037 | 0.027 | -0.0003 | -0.104 | 0.0352 | 0.0089 | 0.061 | -0.0023 | 0.0516 | 0.0023
C[C@@H](c1ccc2nccn2c1)n1nnc2ncc(-c3cnn(C)c3)nc21 [Savolitinib] + CC1(C)CCC(CN2CCN(c3ccc(C(=O)NS(=O)(=O)c4ccc(NCC5CCOCC5)c([N+](=O)[O-])c4)c(Oc4cnc5[nH]ccc5c4)c3)CC2)=C(c2ccc(Cl)cc2)C1 [Venetoclax] (first compound max 1 µM, 7x7, partner max 1 µM) | -0.0839 | -0.0576 | -0.0454 | -0.0344 | -0.0306 | -0.0518 | -0.0181 | -0.0098 | -0.0516 | -0.0342 | -0.0512 | -0.0369 | -0.0114 | -0.0289 | -0.0546 | -0.0831 | -0.0238 | -0.0753 | -0.0452 | -0.0766
C[C@@H](c1ccc2nccn2c1)n1nnc2ncc(-c3cnn(C)c3)nc21 [Savolitinib] + Cc1c2c(nn1C)CSCc1cc(n(C)n1)CSc1cc(c3ccccc3c1)OCCCc1c(C(=O)O)n(C)c3c-2c(Cl)ccc13 [AZD5991] (first compound max 1 µM, 7x7, partner max 1 µM) | -0.0194 | -0.0402 | -0.0179 | -0.0384 | -0.0243 | -0.0417 | -0.0368 | -0.0062 | -0.0355 | -0.04 | -0.0618 | -0.0852 | -0.0383 | -0.0501 | -0.0554 | -0.0554 | -0.0292 | -0.0426 | 0.0026 | -0.0194
Cn1cnc2c(F)c(Nc3ccc(Br)cc3Cl)c(C(=O)NOCCO)cc21 [Selumetinib] + C=CCn1c(=O)c2cnc(Nc3ccc(N4CCN(C)CC4)cc3)nc2n1-c1cccc(C(C)(C)O)n1 [AZD1775] (first compound max 10 µM, partner max 1 µM) | -0.0541 | 0.0024 | -0.0858 | -0.0564 | 0.0242 | -0.0316 | 0.0535 | -0.0347 | -0.0731 | -0.0331 | -0.101 | -0.0821 | -0.041 | -0.11 | -0.0733 | -0.0667 | 0.0582 | -0.0179 | -0.0146 | 0.0014
Cn1cnc2c(F)c(Nc3ccc(Br)cc3Cl)c(C(=O)NOCCO)cc21 [Selumetinib] + CC(C)n1c(=O)n(C)c2cnc3cc(F)c(-c4ccc(OCCCN5CCCCC5)nc4)cc3c21 [AZD1390] (first compound max 10 µM, 7x7, partner max 0.3 µM) | -0.0389 | 0.0011 | -0.0396 | -0.0639 | -0.013 | -0.0154 | 0.0447 | -0.02 | -0.0646 | -0.0344 | -0.0044 | -0.0459 | -0.0189 | -0.0624 | -0.0444 | -0.0081 | 0.007 | -0.0468 | -0.0122 | -0.0099
Cn1cnc2c(F)c(Nc3ccc(Br)cc3Cl)c(C(=O)NOCCO)cc21 [Selumetinib] + CCN(CCO)CCCOc1ccc2c(Nc3cc(CC(=O)Nc4cccc(F)c4)[nH]n3)ncnc2c1 [AZD2811] (first compound max 10 µM, 7x7, partner max 1 µM) | -0.0208 | 0.0129 | -0.0474 | -0.0508 | -0.0203 | -0.0104 | 0.0312 | -0.0261 | -0.0138 | -0.0364 | -0.0082 | -0.035 | -0.0166 | -0.0557 | -0.0486 | 0.0193 | -0.001 | -0.0735 | 0.0277 | 0.0212
Cn1cnc2c(F)c(Nc3ccc(Br)cc3Cl)c(C(=O)NOCCO)cc21 [Selumetinib] + C[C@@H]1COCCN1C2=NC(=NC(=C2)C3(CC3)[S@](=N)(=O)C)C4=C5C=CNC5=NC=C4 [AZD6738] (first compound max 10 µM, 7x7, partner max 10 µM) | 0.104 | 0.0244 | -0.046 | -0.043 | -0.0217 | -0.0399 | 0.106 | -0.0521 | 0.0023 | -0.0364 | -0.0019 | -0.0333 | -0.0273 | -0.0719 | -0.0275 | 0.0369 | 0.012 | -0.0576 | 0.0151 | 0.047
